Reference: publication PMC5609876, “Metformin selectively targets redox control of complex I energy transduction” (Redox Biology, 2017)
Where two headings read alike, the source gives them in different places.

Tests used:
[1] = target: T1, complex I; assay: complex I NADH:paraquat electron transfer, microplate activity assay (ubiquinone replaced by paraquat); format: biochemical, Bos taurus
T1 construct: gene NDUFV1; MitoTox Complex I OXPHOS Activity Microplate Assay (ab109903)

[2] = tested on: T2, complex I; assay: NADH oxidation in rat liver submitochondrial particles; format: biochemical
T2 construct: gene Ndufv1; submitochondrial particles from rat liver

Molecule `[H]/N=C(/N)NCCCCCNC(=N)N` [DG5] has an IC50 [1] of 12 mM.

For `CN(C)C(=N)N=C(N)N` [metformin], the IC50 ([1]; read-out: IC50) was 91 mM.

`[H]/N=C(/N)N/C(=N/[H])NCCc1ccccc1` [phenformin] was tested, and the “NADH oxidation in rat liver submitochondrial particles” value [2] was “Effects of both phenformin and DG5 on NADH oxidation were observed at much lower concentrations than responses to metformin”.
